Source: patent US8124390B2, “Aromatic prenyltransferases, nucleic acids encoding same and uses therefor” (The Salk Institute for Biological Studies, priority 2005, dated 2012)

What was measured:
[1] = system: Orf2; test: Detection of prenyltransferase activity of ORF2, TLC with UV 254 nm, incl. Mg2+ dependence; type: biochemical, Streptomyces sp. strain CL190; conditions: for prenyltransferase activity of ORF2: 5 mM prenyl acceptor, 5 mM MgCl2, 4 hrs room temperature; for reaction products of prenyl acceptor with ORF2: additional studies of Example 5; for prenylated products with ORF2: 5 mM DHN2, 5 mM GPP
[2] = system: Orf2; test: Promiscuous activity of ORF2 with flavonoids and other compounds, [14C]GPP TLC; type: biochemical, Streptomyces sp. strain CL190; conditions: for function as substrates for Orf2 (converted into prenylated derivatives): purified recombinant Orf2 incubated with prenyl donor and prenyl acceptor, FIGS. 2A and 2B; for Orf2 prenyltransferase activity in the presence of flavonoids, isoflavonoids and related compounds: GPP as prenyl donor, FIG. 2B
Method: FIG. 2B illustrates the promiscuous activity of Orf2. Several assays were conducted, employing a variety of potential substrates, i.e., 1,3-DHN (1), 1,6-DHN (2), 2,7-DHN (3), 4-HPP (4) and several isoflavonoids and polyketide derivatives, including daidzein (7,4′-dihydroxyisoflavonone, 5), formononetin (7-hydroxy, 4′-methoxyisoflavonone, 6), fisetin (3,3′,4′,7-tetrahydroxyflavone, 7), genistein (5,7,4′-trihydroxyisoflavone, 8), naringenin (5,7,4′-trihydroxyflavonone, 9), flaviolin (10), olivetol (11), olivetolic acid (12), and resveratrol (3,4′,5-trihydroxystilbene, 13). The chemical structures of four reaction products (i.e., 1,6-dihydroxy 2-geranyl naphthalene (14), 1,6-dihydroxy 5-geranyl naphthalene (15), 6-geranyl naringenin (16) and 7-O-geranyl naringenin (17)) were determined by both MS and ^1H NMR analyses. The reaction buffer consisted of 50 mM HEPES (pH 7.5), 5 mM MgCl2, and 0.1 mM GPP, 0.009 mM [^14C]GPP, and 0.1 mM of each substrate, in a final volume of 20 μl. The reaction was initiated by adding 30 μg of Orf2 to the assay mixture. After incubation at 25° C. for 6 hours, the mixture was dried, and spotted on a silica gel TLC plate. The TLC plate was developed with a chloroform/methanol (15:1) solvent mixture. Reaction products were detected with a [^14C] imaging plate (Fuji Photo Film).
The reaction buffer employed contained 50 mM HEPES (pH 7.5), 5 mM DTT (as needed), 5 mM MgCl2, 0.1 mM of each prenyl acceptor, 0.1 mM GPP, and 0.01 mM [^14C]GPP in a final volume of 20 μl. The reaction was initiated by adding 20 μg of ORF2 protein to the assay mixture. After incubation at room temperature for 4 hrs., the reaction mixture was dried using SpeedVac and the dried residue was spotted on a silica gel TLC plate. The plate was developed with chloroform:methanol (15-30:1). Reaction products were detected with a phosphoimager. The compounds tested were daidzein, fisetin, formononetin, genistein, naringenin, 4-HPP and DHN2.

[3] = system: antibacterial; conditions: Schutz, Phytochemistry 40:1273-1277 (1995); cited from earlier work
[4] = system: HypSc; test: Detection of prenyltransferase activity of HypSc (TLC); type: biochemical, Streptomyces coelicolor A3(2); conditions: for reaction products of prenyl acceptor with hypSc: assay of Example 5 repeated with hypSc
Method: FIG. 7 relates to the functional evaluation of HypSc. Thus, HypSc prenyltransferase activity was assayed as described above with respect to FIG. 2A, using 1,6-DHN as a prenyl acceptor (in each of lanes 1-4), with no prenyl acceptor in lane 1, DMAPP in lanes 2 and 3, and GPP in lane 4. No Mg^2+ was used in lane 2. The samples were incubated overnight at room temperature.
In order to validate this model, HypSc was subcloned from genomic DNA, and over-expressed in E. coli as an octa-histidine tagged protein and purified for Ni^2+-chelation chromatography. The purified enzyme was then assayed for prenyltransferase activity using DMAPP and GPP as prenyl donors.
The assay described in Example 5 was repeated with hypSc and (a) 1,6-DHN (2), (b) 2,7-DHN (3), (c) daidzein ([…], 5), (d) genistein (5,7,4′-trihydroxyisoflavone, 8), (e) naringenin (5,7,4′-trihydroxyflavonone, 9), (f) olivetol (12), and (g) resveratrol (3,4′,5-trihydroxystilbene, 13).

Compound | function as substrates for Orf2 (converted into prenylated derivatives) [2] | Orf2 prenyltransferase activity in the presence of flavonoids, isoflavonoids and related compounds [2] | reaction products of prenyl acceptor with ORF2 [1] | reaction products of prenyl acceptor with hypSc [4] | other results
Oc1cc(O)c2ccccc2c1 [1,3-DHN, 1,3-dihydroxynaphthalene] | function as substrates | – | – | – | prenyltransferase activity of ORF2 ([1]; either prenyl donor FPP or GPP): prenyltransferase activity was observed
CC(C)=CCC/C(C)=C/COP(=O)(O)OP(=O)(O)O [GPP, geranyl diphosphate] | – | – | – | – | relative activity of Orf2 with prenyl donor ([1]; purified recombinant Orf2, prenyl donor DMAPP (C5), GPP (C10) or FPP (C15) with aromatic acceptors): highest relative activity
CCCCCc1cc(O)cc(O)c1C(=O)O [olivetolic acid] | – | active | – | – | –
CC(C)=CCC/C(C)=C/Cc1c(O)cc2c(c1O)C(=O)C[C@@H](c1ccc(O)cc1)O2 [6-geranyl naringenin] | – | – | – | – | antibacterial activity [3]: significant antibacterial activity
O=C(O)C(=O)Cc1ccc(O)cc1 [4-HPP, 4-hydroxyphenylpyruvate] | converted by Orf2 into a prenylated derivative | – | – | – | –
O=c1c(-c2ccc(O)cc2)coc2cc(O)cc(O)c12 [genistein, 5,7,4′-trihydroxyisoflavone] | – | showed prenyltransferase activity | 7-O-geranyl-genistein | no reaction products detected | –
O=c1c(O)c(-c2ccc(O)c(O)c2)oc2cc(O)ccc12 [fisetin, 3,3′,4′,7-tetrahydroxyflavone] | – | little or no activity | – | – | –
N[C@@H](Cc1ccc(O)cc1)C(=O)O [tyrosine] | did not serve as substrates | – | – | – | –
CCCCCc1cc(O)cc(O)c1 [olivetol] | – | active | 2-geranyl-olivetol and 4-geranyl-olivetol | 2-dimethylallyl-olivetol and 4-dimethylallyl-olivetol | –
Oc1ccc2ccc(O)cc2c1 [2,7-DHN] | function as substrates | – | 1-geranyl-2,7-DHN and 1,6-digeranyl-2,7-DHN | 1-dimethylallyl-2,7-DHN | prenyltransferase activity of ORF2 ([1]; prenyl donor GPP): prenyltransferase activity was observed
N[C@@H](Cc1ccccc1)C(=O)O [phenylalanine] | did not serve as substrates | – | – | – | –
Oc1ccc(C=Cc2cc(O)cc(O)c2)cc1 [resveratrol, 3,4′,5-trihydroxystilbene] | – | showed prenyltransferase activity | 4-geranyl-resveratrol | 4-dimethylallyl-resveratrol | –
Oc1ccc2c(O)cccc2c1 [1,6-DHN, 1,6-dihydroxynaphthalene] | function as substrates | – | 5-geranyl-1,6-DHN and 2-geranyl-1,6-DHN | 5-dimethylallyl-1,6-DHN | prenylated products with ORF2 ([1]; absence of magnesium): no prenylated products were observed; prenylated products with ORF2 ([1]; presence of magnesium (5 mM MgCl2)): prenylated products were readily observed; prenyltransferase activity of ORF2 ([1]; either prenyl donor FPP or GPP): prenyltransferase activity was observed; prenylated products detected by thin layer chromatography ([1]; Orf2 incubated with 1,6-DHN and GPP): readily detected; prenyltransferase activity of HypSc ([4]; DMAPP as prenyl donor, absence of Mg2+): Notable prenyltransferase activity was detected
O=C1C(O)=CC(=O)c2c(O)cc(O)cc21 [flaviolin, 2,5,7-trihydroxy-1,4-naphthoquinone] | function as substrates | – | – | – | –
